These results are taken from article PMC9889419 (Pharmacological Reports, 2022).

In one series the test system is mice. Nature of the series: Picrotoxin-induced seizures. As to conditions: ip. The class given is in vivo.
Series [1] concerns Salmonella enterica sv. Typhimurium TA 98. Nature of the series: Ames test. On the technique in general: The Ames test uses bacterial strains that need an amino acid and regain growth without it when mutated back.
Procedure: The test was performed according to a modified pre-incubation method [34]. The test compound was dissolved in DMSO and mixed with 20% (final concentration) cytochrome P450-enriched rat liver S9 post-mitochondrial fraction (20% w/v liver homogenate in 0.25 M Sucrose) in a phosphate buffer and added to an overnight bacterial culture. The mixture was divided into two samples and NADPH added to one of the samples to determine if the test compound requires cytochrome P450 bioactivation to be mutagenic. Both reactions (± NADPH) were incubated at 37 °C for 30 min and then added to a top agar solution containing 0.6% agar, 0.05 mM histidine and 0.05 mM biotin and plated on minimal glucose agar plates. Revertant colonies were counted after a 48 h-incubation at 37 °C. […] Acridine orange at 0.02 mM was also included as a positive control.
The target in a further series is T1, M5 (Homo sapiens, UniProt P08912).
T1 sequence (P08912 1-532): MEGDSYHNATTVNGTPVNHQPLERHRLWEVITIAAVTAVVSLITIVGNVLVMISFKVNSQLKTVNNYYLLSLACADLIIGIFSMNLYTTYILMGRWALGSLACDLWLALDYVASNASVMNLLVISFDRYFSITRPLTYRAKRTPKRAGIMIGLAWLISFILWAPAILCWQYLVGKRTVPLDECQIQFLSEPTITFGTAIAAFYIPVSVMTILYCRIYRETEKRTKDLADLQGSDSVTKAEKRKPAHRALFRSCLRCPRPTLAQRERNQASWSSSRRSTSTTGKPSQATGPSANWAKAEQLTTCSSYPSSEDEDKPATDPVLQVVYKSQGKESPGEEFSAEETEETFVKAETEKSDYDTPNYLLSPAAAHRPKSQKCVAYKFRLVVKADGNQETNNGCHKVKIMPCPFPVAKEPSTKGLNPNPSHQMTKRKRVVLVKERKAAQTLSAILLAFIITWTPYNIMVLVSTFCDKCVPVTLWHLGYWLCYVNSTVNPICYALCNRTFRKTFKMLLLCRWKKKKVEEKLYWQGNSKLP
Briefly: Radioligand binding. On the procedure: (§1) Radioligand binding. Radioligand binding assays were performed at Eurofins CEREP (France). The results are expressed as a percent of control specific binding (measured specific binding*100/control specific binding) and as a percent inhibition of control specific binding (100-(measured specific binding*100)/control specific binding) obtained in the presence of the test compounds. The IC50 values (concentration causing a half-maximal inhibition of control specific binding) and Hill coefficients (nH) were determined by non-linear regression analysis of the competition curves generated with mean replicate values using Hill equation curve fitting (Y = D + [A-D]/[1 + (C/C50)^nH], where Y = specific binding, A = left asymptote of the curve, D = right asymptote of the curve, C = compound concentration, C50 = IC50, and nH = slope factor). This analysis was performed using software developed at Cerep (Hill software) and validated by comparison with data generated by the commercial software SigmaPlot® 4.0 for Windows® (© 1997 by SPSS Inc.). The inhibition constants (Ki) were calculated using the Cheng Prusoff equation (Ki = IC50/[1 + L/KD], where L = concentration of radioligand in the assay, and KD = affinity of the radioligand for the receptor). A scatchard plot is used to determine the Kd.

The next series concerns the target κ (KOP) (Rattus norvegicus, UniProt P34975). Nature of the series: Radioligand binding. On the procedure: as §1
The nature of the next series: MTT assay. The class given is cell-based, murine. As to conditions: mouse, astrocyte cell line (ATCC CRL-2541); 250 µM; read-out: cell viability compared to control.
A further series addresses T2, hNav1.4 sodium channel (Homo sapiens, UniProt P35499).
T2 construct: host or cells: CHO cells
Briefly: Nav channel electrophysiology (IonWorks Quattro). Type of series: cell-based. (The patch-clamp technique gives a direct electrical read-out from membranes.)

The test system of another series is murine astrocytes. Briefly: Crystal violet (CV) assay. Type of series: cell-based.
[2] abbreviates: 0.01 μM, read-out: % of control specific binding.
Setting [3] is: 0.1 μM, read-out: % of control specific binding.
Setting [4] is: 1 μM, read-out: % of control specific binding.
The mark [5] stands for this setting: 10 μM, read-out: % of control specific binding.
[6] abbreviates: 100 μM, read-out: % of control specific binding.

As a reminder, the viability is a per cent measure of how many cells are alive, often set against a control. For orientation: IC50 means the concentration needed to halve the response being measured. As usually defined, the Ki is the dissociation constant of the complex between target and ligand, obtained from inhibition or displacement. A high value points to lower affinity.

The structures appear in SMILES notation. Structures can show the parent of a compound that is named as a salt. Where only a bound is given, the exact number is not on record here.

Sequence of κ (KOP) (P34975 whole entry): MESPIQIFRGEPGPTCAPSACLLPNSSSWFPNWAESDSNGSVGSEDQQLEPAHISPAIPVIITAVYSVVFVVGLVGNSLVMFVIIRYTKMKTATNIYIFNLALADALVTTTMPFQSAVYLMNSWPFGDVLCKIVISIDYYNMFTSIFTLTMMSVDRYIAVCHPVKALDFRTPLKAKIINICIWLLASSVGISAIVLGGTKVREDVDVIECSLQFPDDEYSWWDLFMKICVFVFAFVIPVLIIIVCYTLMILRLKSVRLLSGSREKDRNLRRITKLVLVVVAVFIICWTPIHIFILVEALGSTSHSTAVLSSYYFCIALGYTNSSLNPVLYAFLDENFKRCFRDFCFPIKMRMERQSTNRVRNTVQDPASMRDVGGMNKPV
T2 sequence (P35499 whole entry): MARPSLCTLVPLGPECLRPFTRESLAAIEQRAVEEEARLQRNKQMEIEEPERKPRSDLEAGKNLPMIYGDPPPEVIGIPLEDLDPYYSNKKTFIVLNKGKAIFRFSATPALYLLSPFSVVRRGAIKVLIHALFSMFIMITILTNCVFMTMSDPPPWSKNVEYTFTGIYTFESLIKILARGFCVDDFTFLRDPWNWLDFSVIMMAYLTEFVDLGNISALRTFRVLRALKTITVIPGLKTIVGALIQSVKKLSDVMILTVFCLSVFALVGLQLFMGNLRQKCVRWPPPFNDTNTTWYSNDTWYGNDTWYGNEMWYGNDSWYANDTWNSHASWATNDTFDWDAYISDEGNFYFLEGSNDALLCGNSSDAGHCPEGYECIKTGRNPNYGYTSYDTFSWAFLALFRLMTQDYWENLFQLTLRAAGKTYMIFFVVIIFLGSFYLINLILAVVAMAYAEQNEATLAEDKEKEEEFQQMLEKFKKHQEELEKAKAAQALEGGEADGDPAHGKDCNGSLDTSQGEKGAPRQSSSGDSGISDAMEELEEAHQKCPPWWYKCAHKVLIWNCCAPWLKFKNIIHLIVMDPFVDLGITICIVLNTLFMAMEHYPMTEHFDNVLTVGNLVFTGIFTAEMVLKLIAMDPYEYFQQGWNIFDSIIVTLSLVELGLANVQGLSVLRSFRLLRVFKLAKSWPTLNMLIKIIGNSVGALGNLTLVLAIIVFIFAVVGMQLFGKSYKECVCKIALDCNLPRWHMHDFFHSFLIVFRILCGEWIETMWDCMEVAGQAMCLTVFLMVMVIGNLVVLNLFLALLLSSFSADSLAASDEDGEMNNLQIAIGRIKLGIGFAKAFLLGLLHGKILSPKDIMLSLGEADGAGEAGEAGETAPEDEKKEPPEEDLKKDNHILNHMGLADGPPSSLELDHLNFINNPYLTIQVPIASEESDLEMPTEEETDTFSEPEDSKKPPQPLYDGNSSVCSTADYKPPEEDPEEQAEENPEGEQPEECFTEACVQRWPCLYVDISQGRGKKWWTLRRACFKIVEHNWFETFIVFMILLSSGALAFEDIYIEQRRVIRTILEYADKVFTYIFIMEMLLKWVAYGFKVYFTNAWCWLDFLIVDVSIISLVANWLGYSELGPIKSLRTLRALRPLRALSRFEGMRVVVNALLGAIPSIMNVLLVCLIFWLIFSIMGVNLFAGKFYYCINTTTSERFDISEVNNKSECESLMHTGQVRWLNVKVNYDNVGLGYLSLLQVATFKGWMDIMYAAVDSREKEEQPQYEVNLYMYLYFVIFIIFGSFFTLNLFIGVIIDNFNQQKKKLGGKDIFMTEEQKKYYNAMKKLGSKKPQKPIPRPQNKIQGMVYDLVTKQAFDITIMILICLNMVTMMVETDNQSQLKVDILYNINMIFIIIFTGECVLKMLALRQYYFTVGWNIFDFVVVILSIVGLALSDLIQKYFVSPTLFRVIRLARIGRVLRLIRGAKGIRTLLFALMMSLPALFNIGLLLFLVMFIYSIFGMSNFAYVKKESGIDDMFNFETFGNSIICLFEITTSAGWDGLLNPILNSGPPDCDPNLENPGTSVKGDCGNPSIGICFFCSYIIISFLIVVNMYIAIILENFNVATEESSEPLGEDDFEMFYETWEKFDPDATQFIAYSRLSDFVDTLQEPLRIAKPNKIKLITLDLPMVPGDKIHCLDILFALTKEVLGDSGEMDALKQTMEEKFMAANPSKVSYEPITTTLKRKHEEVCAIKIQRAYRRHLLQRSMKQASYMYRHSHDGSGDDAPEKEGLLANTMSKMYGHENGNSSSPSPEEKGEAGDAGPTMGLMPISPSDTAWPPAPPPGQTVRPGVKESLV
Procedure for MTT assay: Cells were seeded at a density of 1 × 10^4 cells per well in 96 well plates. […] Next, Crystal Dissolving Solution (Cayman) was added to each well.
Procedure for murine astrocytes: CV assay. Cells were seeded at a density of 1 × 10^4 cells per well in 96-well plates.

In the case of `CCC(CO)NCCOc1c(C)cccc1Cl` (centres unmarked) [Compound 4, R,S-2-((2-(2-chloro-6-methylphenoxy)ethyl)amino)butan-1-ol], the “Picrotoxin-induced seizures ED50” value with mice is above 70 mg/kg. Besides, in series [1] (0.10 mM), the “% of benzo[a]pyrene (+NADPH) control, + NADPH, Sample 1” value amounted to 7.8%; the “% of benzo[a]pyrene (+NADPH) control, + NADPH, Sample 2” value was found to be 7.8%; the “% of benzo[a]pyrene (+NADPH) control, − NADPH, Sample 1” value was 5.5%; the “% of benzo[a]pyrene (+NADPH) control, − NADPH, Sample 2” value was found to be 7.4%. In addition, in series [1] (0.20 mM), the “% of benzo[a]pyrene (+NADPH) control, + NADPH, Sample 1” value is listed as 5.2%; the “% of benzo[a]pyrene (+NADPH) control, + NADPH, Sample 2” value is 7.4%; the “% of benzo[a]pyrene (+NADPH) control, − NADPH, Sample 1” value was 5.4%; the “% of benzo[a]pyrene (+NADPH) control, − NADPH, Sample 2” value is 5.3%. Further, in series [1] (0.50 mM), the “% of benzo[a]pyrene (+NADPH) control, + NADPH, Sample 1” value worked out at 5.2%; the “% of benzo[a]pyrene (+NADPH) control, + NADPH, Sample 2” value was 7%; the “% of benzo[a]pyrene (+NADPH) control, − NADPH, Sample 1” value amounted to 4.9%; the “% of benzo[a]pyrene (+NADPH) control, − NADPH, Sample 2” value came to 6.7%. For the same compound, the mutagenicity entry in series [1] (0.1–0.5 mM, compared to DMSO solvent control) is “non-mutagenic”. Further, the “% of control specific binding” value on M5 (100 μM) amounted to 21.5%. Besides, the “% of control specific binding” value on κ (KOP) (100 μM) is listed as 29.0%.

Regarding `CCC(CO)NCCOc1c(C)cccc1Cl` (centres unmarked) [KM-408, R,S-2-((2-(2-chloro-6-methylphenoxy)ethyl)amino)butan-1-ol hydrochloride], the viability at 24 h, 250 µM in “MTT assay” was found to be 81%. The IC50 was 35 µM at M5; 25 µM on κ (KOP); 8.17 µM on hNav1.4 sodium channel (10 Hz); below 10 µM at hNav1.4 sodium channel (Inactivated state); 68 µM against hNav1.4 sodium channel (Tonic block). Also, the Ki at M5 was 18 µM; at κ (KOP) it was 17 µM. In addition, the remaining activity at 0.01 µM on M5 (setting [2]) and at κ (KOP) (setting [2]) was 104% in each case. Moreover, the remaining activity at 0.1 µM was 92.6% at M5 (setting [3]) and 98.3% on κ (KOP) (setting [3]). For the same compound, the remaining activity at 1 µM on M5 (setting [4]) stood at 96.8%; on κ (KOP) (setting [4]), 97.3%. In addition, the remaining activity at 10 µM on M5 (setting [5]) stood at 76.6%; at κ (KOP) (setting [5]), 72.1%. The figures for the remaining activity at 100 µM at M5 (setting [6]) and on κ (KOP) (setting [6]) were 26% and 21.1%, respectively. Moreover, the “impact on proliferation (crystal violet)” value in the series on murine astrocytes is “did not exhibit cytotoxic activity and a notable impact on proliferation”.
